In US8563738B2, “Ligands for copper-catalyzed azide-alkyne cycloaddition reactions” (The Scripps Research Institute, priority 2007, dated 2013):
“Also recorded” adds a separate entry of the source.

Key:
[1] = Second-order rate constants of CuAAC reaction by LC-MS of quenched aliquots; details: 4:1 DMSO:buffer, Tris buffer over a standard range of concentrations
[2] = Ligand screening by reaction calorimetry (peak reaction power); set-up: key to calorimetry ligand category: reactions that failed to produce a signal in the calorimeter were classified as identifying “inactive” ligands; moderate: give observable, but not very strong, calorimetry signals; details: 65° C.
From the text: Reaction calorimetry was used to evaluate the relative merits of various ligands under practical conditions of organic synthesis, e.g., involving high concentrations of azide and alkyne reagents and low loadings of catalyst. After correction for instrumental heat transfer parameters, thermograms provide a direct real-time measure of reaction rate (power output); integration gives the overall time-vs.-completion curve. […] All such measurements were made in the same 4:1 DMSO:aqueous solvent as before, but at 65° C. rather than room temperature, in order to keep the product triazole in solution at the higher concentrations used.
Calorimetry was performed in an Omnical INSIGHT® 10-channel reaction calorimeter using 40 mL glass vials. In a typical run all the reaction components but one were introduced into the vials inside an inert atmosphere glovebox, and vials were sealed with septum caps. The last reaction component to be added was placed in a Hamilton gastight syringe. The vials and syringes were then allowed to equilibrate inside the preheated instrument (65° C.) for 30 minutes. The reaction was started in all vials by depressing all of the syringes simultaneously. Two vials out of ten were charged only with solvent to obtain readings allowing for compensation for the heat of mixing. The thermograms registered in these two channels upon addition of the last component were used to construct the baseline for the other 8 channels.
Since heat is not transferred to the instrument sensor instantaneously, the thermogram registered by the instrument is dependent on the characteristics of the instrument and reaction vessel. Correction for these extraneous factors must be applied to the recorded thermograms to obtain instrument-independent data (Rosner, T.; et al. J. Am. Chem. Soc. 2001, 123, 1848-1855; Liu, J.-S.; et al. Thermochimica Acta 1994, 236, 113-122). The appropriate dynamic correction function is built into the instrument operating software. Use of vendor supplied software produces the same result as manual correction.
By the same token, catalysts such as Cu.1 that give observable, but not very strong, calorimetry signals cannot be fully analyzed by converting thermograms to completion curves, because a significant amount of the total energy output is lost below the detection threshold of the instrument. TBTA (1) falls into this category, classified as “moderate” ligands. […] However, peak power values (i.e., maximum reaction rate) provided a reproducible relative measure of relative catalytic efficiency.
Ligands were screened under the following conditions: 250 mM benzyl azide, 454 mM phenylacetylene, 2 mM CuSO4, 4 mM ligand, 25 mM sodium ascorbate. Phenylacetylene was the last component added. Initial screening was performed with at least two independent trials for each ligand. Candidates showing promising activity were then examined with at least three independent trials to obtain reliable estimations of experimental error.

In the case of `c1ccc(Cn2cc(CN(Cc3cn(Cc4ccccc4)nn3)Cc3cn(Cc4ccccc4)nn3)nn2)cc1` [TBTA (1), tris((1-benzyl-1H-1,2,3-triazol-4-yl)methyl)amine, reference compound], the “effect of Tris buffer on rate” value [1] is reported as “slowed significantly”, the calorimetry ligand category ([2]; 250 mM benzyl azide, 454 mM phenylacetylene, 2 mM CuSO4, 4 mM ligand, 25 mM sodium ascorbate) is reported as “moderate” and the “relative catalytic activity by calorimetry” value ([2]; high reactant concentrations, 1% Cu, 4:1 DMSO:aqueous) is reported as “sluggish catalyst compared to many of the others tested; also recorded: lower half of the ligands tested”.
